This is an account of results in ChEMBL document CHEMBL2163222 (J Med Chem, 2012).

The nature of test [1]: Growth inhibition of human OE21 cells after 3 days by MTT assay. Particulars: OE21, 72 h. The format is functional, cell-based.
In the next test the test system is Hs 683. In words: cells. Particulars: Homo sapiens, Hs 683, 72 h.
The test system of the next test is T98G. In words: cells. The following applies: Homo sapiens, 72 h.
The next test can be described thus: cells. The following applies: Homo sapiens, U373 MG, 72 h.
The test system of the next test is OE33. In words: Growth inhibition of human OE33 cells after 3 days by MTT assay. The test is classed as functional, cell-based. The following applies: OE33, 72 h.

For the molecule `Cc1c2c(cc[n+]1CCc1ccccc1)c1ccc(OCCC(C)C)cc1n2CCC(C)C`, the IC50 in test [1] was found to be 3.7 µM; in the test on Hs 683 it was 3.1 µM; with T98G, 3.5 µM; in the test “cells”, 3.4 µM.

Turning to `Cc1c2c(cc[n+]1Cc1ccccc1F)c1ccc(OCC3CCCCC3)cc1n2CC1CCCCC1`, the IC50 is 0.35 µM in test [1]; 0.35 µM in the test on OE33; 0.25 µM in the test on Hs 683; 0.07 µM with T98G; 1.4 µM in the test “cells”.

As for `Cc1c2c(cc[n+]1Cc1ccc(F)cc1)c1ccc(OCc3ccc(F)cc3)cc1n2Cc1ccc(F)cc1`, the IC50 in test [1] was 3.7 µM; in the test with OE33, 3.1 µM; in the test with Hs 683, 13 µM; with T98G, 14 µM; in the test “cells” it was 2.9 µM.

On to `Cc1c2c(cc[n+]1CCC(C)C)c1ccc(OCc3ccccc3)cc1n2Cc1ccccc1`, for which the IC50 in test [1] was found to be 0.5 µM; in the test on Hs 683 it was 0.37 µM; in the test on T98G, 1.2 µM; in “cells”, 0.39 µM.

For the molecule `Cc1c2c(cc[n+]1CCc1ccccc1)c1ccc(OCc3ccccc3)cc1n2Cc1ccccc1`, the IC50 came out at 2.4 µM in test [1], 2.3 µM in the test on Hs 683, 2.4 µM in the test with T98G and 2 µM in “cells”.

For `Cc1c2c(cc[n+]1CCc1ccccc1)c1ccc(OCC3CCCCC3)cc1n2CC1CCCCC1`, the IC50 in the test on Hs 683 was 0.31 µM; in the test with T98G it was 0.26 µM; in the test “cells” it was 0.2 µM.

Consider `Cc1nccc2c1[nH]c1cc(OCCc3ccccc3)ccc12`, for which the IC50 worked out at 14 µM in test [1]; 7.9 µM with OE33; 21 µM in the test on Hs 683; 21 µM in the test with T98G; 9.1 µM in “cells”.

For `C=CCOc1ccc2c(c1)[nH]c1c(C)nccc12`, the IC50 in test [1] stood at 27 µM; in the test with OE33, 30 µM; in the test on Hs 683, 28 µM; with T98G it was 32 µM; in the test “cells” it was 32 µM.

Regarding `Cc1nccc2c3ccc(OCc4ccc(F)cc4)cc3n(Cc3ccc(F)cc3)c12`, the IC50 stood at 15 µM in test [1]; 25 µM in the test on OE33; 17 µM in the test with Hs 683; 14 µM with T98G; 30 µM in “cells”.

Turning to `CCCn1c2cc(OCc3ccccc3)ccc2c2ccnc(C)c21`, the IC50 in test [1] stood at 23 µM; with OE33, 9 µM; in the test with Hs 683, 13 µM; with T98G, 34 µM; in “cells” it was 26 µM.

Take `Cc1c2c(cc[n+]1Cc1ccccc1)c1ccc(OCCC(C)C)cc1n2CCC(C)C`: the results for the IC50 in the test with Hs 683, with T98G and in “cells” were 0.47 µM, 0.6 µM and 0.38 µM, respectively.

Turning to `CCCn1c2cc(OCc3ccccc3)ccc2c2cc[n+](Cc3ccc(F)cc3)c(C)c21`, the IC50 in test [1] is 1.9 µM; in the test on OE33 it was 1 µM; with Hs 683 it was 3.1 µM; with T98G, 5.7 µM; in the test “cells”, 0.88 µM.

In the case of `Cc1c2c(cc[n+]1Cc1ccccc1)c1ccc(OCc3ccc(F)cc3)cc1n2Cc1ccc(F)cc1`, the IC50 in test [1] amounted to 0.5 µM; in the test on OE33, 1.4 µM; in the test on Hs 683 it was 0.9 µM; in the test with T98G it was 0.4 µM; in the test “cells” it was 0.43 µM.

Consider `Cc1c2c(cc[n+]1Cc1ccccc1F)c1ccc(OCc3cccc(F)c3)cc1n2Cc1cccc(F)c1`, for which the IC50 in test [1] stood at 1.4 µM; in the test on OE33 it was 3 µM; in the test on Hs 683, 2.2 µM; with T98G, 0.7 µM; in the test “cells” it was 0.6 µM.

For the molecule `Cc1nccc2c1[nH]c1cc(OCc3ccccn3)ccc12`, the IC50 in test [1] came to 16 µM; in the test with OE33, 23 µM; in the test with Hs 683, 20 µM; in the test on T98G, 20 µM; in the test “cells”, 21 µM.

As to `Cc1nccc2c3ccc(O)cc3n(Cc3ccccc3)c12`, the concentration for half-maximal inhibition (IC50) in test [1] was 35 µM; in the test with OE33, 35 µM; in the test on Hs 683 it was 79 µM; with T98G, 81 µM; in “cells”, 80 µM.

Take `Cc1nccc2c1[nH]c1cc(OCc3ccccc3)ccc12`: the IC50 was 21 µM in test [1]; 4.1 µM with OE33; 17 µM with Hs 683; 17 µM in the test on T98G; 9.3 µM in the test “cells”.

With `CCC[n+]1ccc2c3ccc(OCc4ccccc4)cc3n(Cc3ccccc3)c2c1C`, the IC50 in test [1] was 3.4 µM; in the test with Hs 683 it was 0.6 µM; in the test on T98G it was 11 µM; in “cells”, 2.5 µM.

Consider `Cc1nccc2c1[nH]c1cc(OCc3cccc4ccccc34)ccc12`, for which the IC50 is 33 µM in test [1]; 8.2 µM in the test on OE33; 19 µM with Hs 683; 12 µM with T98G; 7.4 µM in “cells”.

With `CCCn1c2cc(OCc3ccccc3)ccc2c2cc[n+](Cc3ccccc3F)c(C)c21`, the IC50 in test [1] was found to be 0.42 µM; in the test with OE33, 0.25 µM; in the test with Hs 683 it was 0.45 µM; with T98G it was 1.8 µM; in “cells” it was 0.39 µM.

Consider `Cc1nccc2c1[nH]c1cc(OCC3CCCCC3)ccc12`, for which the IC50 in test [1] turned out to be 8.3 µM; in the test with OE33, 8.1 µM; with Hs 683, 22 µM; with T98G, 7.2 µM; in “cells” it was 7.5 µM.

As for `Cc1nccc2c1[nH]c1cc(OCCCC(F)(F)F)ccc12`, the IC50 in test [1] is above 100 µM; with OE33, above 100 µM; with Hs 683, above 100 µM; with T98G it was 86 µM; in “cells” it was above 100 µM.

`Cc1nccc2c3ccc(OCCC(C)C)cc3n(CCC(C)C)c12`: the IC50 in test [1] is 30 µM; with Hs 683 it was 30 µM; in the test with T98G it was 35 µM; in “cells” it was 33 µM.

Consider `Cc1c2c(cc[n+]1Cc1ccc(F)cc1)c1ccc(OCC3CCCCC3)cc1n2CC1CCCCC1`, for which the IC50 in test [1] amounted to 1.4 µM; in the test on OE33, 1 µM; in the test with Hs 683 it was 3.1 µM; in the test with T98G it was 2 µM; in the test “cells”, 0.04 µM.

For `Cc1nccc2c1[nH]c1cc(OC(=O)c3ccccc3)ccc12`, the IC50 in test [1] turned out to be 30 µM; in the test with OE33, 31 µM; with Hs 683, 53 µM; with T98G, 42 µM; in the test “cells”, 27 µM.

Turning to `Cc1c2c(cc[n+]1Cc1ccc(F)cc1)c1ccc(OCc3ccccc3)cc1n2Cc1ccccc1`, the IC50 was 0.61 µM in test [1]; 2.4 µM in the test with OE33; 1.6 µM in the test on Hs 683; 0.6 µM in the test on T98G; 0.6 µM in the test “cells”.

On to `Cc1nccc2c1[nH]c1cc(OCC(C)C)ccc12`, for which the IC50 turned out to be 12 µM in test [1]; 25 µM in the test with OE33; 23 µM in the test on Hs 683; 22 µM in the test on T98G; 24 µM in the test “cells”.

In the case of `CCCn1c2cc(OCc3ccccc3)ccc2c2cc[n+](Cc3ccccc3)c(C)c21`, the IC50 in test [1] stood at 0.57 µM; in the test with OE33, 0.3 µM; in the test with Hs 683, 2.6 µM; in the test on T98G, 1.7 µM; in the test “cells” it was 0.41 µM.

In the case of `Cc1c2c(cc[n+]1CCC(C)C)c1ccc(OCCC(C)C)cc1n2CCC(C)C`, the IC50 in test [1] stood at 0.48 µM; in the test with Hs 683, 0.26 µM; with T98G it was 0.41 µM; in “cells”, 0.22 µM.

As to `COc1ccc2c(c1)[nH]c1c(C)nccc12` [HARMINE], the IC50 was determined as 32 µM in test [1], 18 µM with OE33, 24 µM in the test on T98G and 32 µM in the test “cells”.

`Cc1c2c(cc[n+]1CCO)c1ccc(OCCC(C)C)cc1n2CCC(C)C`: the IC50 in test [1] turned out to be 7.6 µM; in the test with Hs 683 it was 4 µM; in the test with T98G, 2.9 µM; in the test “cells”, 2.5 µM.

In the case of `Cc1nccc2c3ccc(OCc4cccc(F)c4)cc3n(Cc3cccc(F)c3)c12`, the IC50 in test [1] turned out to be 7.9 µM; with OE33, 16 µM; in the test with Hs 683 it was 18 µM; with T98G it was 27 µM; in the test “cells” it was 0.4 µM.

Consider `CCCCCC[n+]1ccc2c3ccc(OCc4ccccc4)cc3n(Cc3ccccc3)c2c1C`, for which the IC50 turned out to be 1.9 µM in test [1], 0.6 µM in the test on Hs 683, 3.1 µM in the test with T98G and 0.7 µM in the test “cells”.

For `Cc1c2c(cc[n+]1Cc1ccccc1F)c1ccc(OCc3ccc(F)cc3)cc1n2Cc1ccc(F)cc1`, the IC50 was 1.6 µM in test [1]; 1.6 µM with OE33; 1.2 µM with Hs 683; 0.43 µM in the test on T98G; 0.5 µM in the test “cells”.

For `Cc1c2[nH]c3cc(OCc4ccccc4)ccc3c2cc[n+]1Cc1ccccc1`, the IC50 in test [1] stood at 6 µM; in the test on OE33, 5.5 µM; in the test on Hs 683, 3.6 µM; with T98G it was 5.6 µM; in the test “cells” it was 3.9 µM.

In the case of `Cc1nccc2c1[nH]c1cc(OCCO)ccc12`, the IC50 amounted to 30 µM in test [1]; 63 µM in the test with OE33; 41 µM in the test on Hs 683; 53 µM with T98G; 42 µM in the test “cells”.

Regarding `Cc1c2c(cc[n+]1Cc1ccccc1F)c1ccc(OCc3ccccc3)cc1n2Cc1ccccc1`, the IC50 was found to be 0.38 µM in test [1]; 0.7 µM in the test with OE33; 0.44 µM in the test on Hs 683; 0.37 µM in the test with T98G; 0.5 µM in “cells”.

For the molecule `Cc1c2c(cc[n+]1CCO)c1ccc(OCC3CCCCC3)cc1n2CC1CCCCC1`, the results for the IC50 in the test with Hs 683, in the test on T98G and in “cells” were 3.8 µM, 2.6 µM and 1.7 µM, respectively.

For `Cc1c2c(cc[n+]1CCO)c1ccc(OCc3ccccc3)cc1n2Cc1ccccc1`, the IC50 stood at 25 µM in test [1], 31 µM in the test with Hs 683, 61 µM in the test with T98G and 9 µM in “cells”.

For `Cc1c2c(cc[n+]1Cc1ccccc1)c1ccc(OCc3cccc(F)c3)cc1n2Cc1cccc(F)c1`, the IC50 in test [1] amounted to 0.4 µM; in the test with OE33, 2.9 µM; in the test with Hs 683, 2.8 µM; with T98G, 0.97 µM; in “cells” it was 0.8 µM.

`Cc1c2c(cc[n+]1CCC(C)C)c1ccc(OCC3CCCCC3)cc1n2CC1CCCCC1`: the IC50 in the test with Hs 683 was found to be 0.42 µM; in the test with T98G it was 0.43 µM; in “cells”, 0.4 µM.
